Measurements as given in ChEMBL document CHEMBL1201862, “PubChem BioAssay data set” (2004).
Activity calls are given as the source filed them.

How the values were obtained:
[1] = test system: Streptococcus sp. 'group A'; assay: Streptococcus pyogenes SK(-)GAS viability under kanamycin – luminescence, BacTiterGlo, confirmation, counter-screen for streptokinase expression inhibitor project, dose response (AID 1900); format: functional, organism-based
Streptokinase A = molecular target: T1, Streptokinase A (Streptococcus pyogenes serotype M1, UniProt P10520); assay: viability-normalized secreted streptokinase activity reduction – plasminogen activation absorbance, OD405, dose response (AID 1914); format: functional, Streptococcus pyogenes M1 GAS;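 also: secreted streptokinase activity via plasminogen activation per viability signal from cell pellet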
T1 sequence (P10520 whole entry): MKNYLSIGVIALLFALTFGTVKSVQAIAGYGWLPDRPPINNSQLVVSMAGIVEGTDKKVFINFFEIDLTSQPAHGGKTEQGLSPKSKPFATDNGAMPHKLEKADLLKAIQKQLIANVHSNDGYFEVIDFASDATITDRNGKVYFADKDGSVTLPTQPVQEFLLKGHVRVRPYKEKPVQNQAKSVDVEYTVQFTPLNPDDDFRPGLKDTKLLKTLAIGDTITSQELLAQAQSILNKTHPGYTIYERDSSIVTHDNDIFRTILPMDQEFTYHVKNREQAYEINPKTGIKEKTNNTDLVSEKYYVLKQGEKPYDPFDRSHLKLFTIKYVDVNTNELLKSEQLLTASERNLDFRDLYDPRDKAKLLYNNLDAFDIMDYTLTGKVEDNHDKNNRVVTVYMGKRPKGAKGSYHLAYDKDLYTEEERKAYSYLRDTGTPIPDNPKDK

Streptococcus = assay: GAS UMAA2166 growth inhibition – luminescence, BacTiterGlo, counter-screen for streptokinase expression inhibitor project, dose response (AID 1915); format: functional, organism-based;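 also: potency for reduction of bacterial viability or growth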
Cytochrome P450 1A2 = molecular target: T2, Cytochrome P450 1A2 (Homo sapiens, UniProt P05177);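 also: PubChem cytochrome P450 panel assay, CYP1A2 panel member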
T2 sequence (P05177 whole entry): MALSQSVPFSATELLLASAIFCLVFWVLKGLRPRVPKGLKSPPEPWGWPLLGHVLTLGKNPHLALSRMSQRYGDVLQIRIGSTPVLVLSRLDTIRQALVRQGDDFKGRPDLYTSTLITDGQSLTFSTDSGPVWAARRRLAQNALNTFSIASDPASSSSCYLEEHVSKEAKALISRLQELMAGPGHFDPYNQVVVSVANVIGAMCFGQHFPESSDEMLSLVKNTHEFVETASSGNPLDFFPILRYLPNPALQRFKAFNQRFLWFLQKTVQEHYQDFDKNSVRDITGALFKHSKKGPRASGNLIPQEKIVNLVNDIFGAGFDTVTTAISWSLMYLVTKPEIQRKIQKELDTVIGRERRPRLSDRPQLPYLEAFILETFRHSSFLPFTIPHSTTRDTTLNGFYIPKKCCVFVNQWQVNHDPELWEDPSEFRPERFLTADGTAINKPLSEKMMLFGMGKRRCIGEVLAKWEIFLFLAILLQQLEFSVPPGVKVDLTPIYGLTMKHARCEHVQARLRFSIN

Cytochrome P450 3A4 = Cytochrome P450 3A4 (Homo sapiens, UniProt P08684);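 also: CYP3A4 tested as one member of a cytochrome P450 panel screen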
Cytochrome P450 2C9 = Cytochrome P450 2C9 (Homo sapiens, UniProt P11712)
[2] = molecular target: T3, Heat shock factor protein 1 (Mus musculus, UniProt P38532); assay: decrease of HSF1-responsive luciferase luminescence – cell-based, NIH3T3, dose retest, confirmation (AID 2382); format: functional;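 also: NIH3T3 fibroblasts with HSF1-driven luciferase reporter stressed by proteasome inhibitor MG132; luminescence from HSF1-driven luciferase expression after 8 hours of MG132 stress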
T3 sequence (P38532 whole entry): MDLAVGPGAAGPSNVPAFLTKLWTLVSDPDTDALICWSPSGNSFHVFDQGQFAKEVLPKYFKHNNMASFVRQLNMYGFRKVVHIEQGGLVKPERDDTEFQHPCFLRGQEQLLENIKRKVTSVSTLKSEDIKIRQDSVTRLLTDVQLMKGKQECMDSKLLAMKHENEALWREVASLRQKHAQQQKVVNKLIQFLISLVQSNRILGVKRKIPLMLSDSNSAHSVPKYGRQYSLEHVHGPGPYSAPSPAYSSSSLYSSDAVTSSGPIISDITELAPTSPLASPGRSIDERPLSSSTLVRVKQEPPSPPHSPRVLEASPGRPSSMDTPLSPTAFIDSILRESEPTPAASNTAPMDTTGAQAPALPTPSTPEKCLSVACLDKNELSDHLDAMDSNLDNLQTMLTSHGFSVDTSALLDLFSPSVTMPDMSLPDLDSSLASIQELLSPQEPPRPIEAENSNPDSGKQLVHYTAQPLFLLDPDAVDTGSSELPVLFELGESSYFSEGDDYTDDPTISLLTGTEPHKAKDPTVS

[3] = molecular target: T4, Rac GTPase-activating protein 1 (Homo sapiens, UniProt Q9H0H5); assay: blockers of MgcRacGAP-driven Rac1 GTP hydrolysis – biochemical, ADP Hunter fluorescence, primary and confirmatory, confirmation (AID 624330); format: functional
T4 sequence (Q9H0H5 whole entry): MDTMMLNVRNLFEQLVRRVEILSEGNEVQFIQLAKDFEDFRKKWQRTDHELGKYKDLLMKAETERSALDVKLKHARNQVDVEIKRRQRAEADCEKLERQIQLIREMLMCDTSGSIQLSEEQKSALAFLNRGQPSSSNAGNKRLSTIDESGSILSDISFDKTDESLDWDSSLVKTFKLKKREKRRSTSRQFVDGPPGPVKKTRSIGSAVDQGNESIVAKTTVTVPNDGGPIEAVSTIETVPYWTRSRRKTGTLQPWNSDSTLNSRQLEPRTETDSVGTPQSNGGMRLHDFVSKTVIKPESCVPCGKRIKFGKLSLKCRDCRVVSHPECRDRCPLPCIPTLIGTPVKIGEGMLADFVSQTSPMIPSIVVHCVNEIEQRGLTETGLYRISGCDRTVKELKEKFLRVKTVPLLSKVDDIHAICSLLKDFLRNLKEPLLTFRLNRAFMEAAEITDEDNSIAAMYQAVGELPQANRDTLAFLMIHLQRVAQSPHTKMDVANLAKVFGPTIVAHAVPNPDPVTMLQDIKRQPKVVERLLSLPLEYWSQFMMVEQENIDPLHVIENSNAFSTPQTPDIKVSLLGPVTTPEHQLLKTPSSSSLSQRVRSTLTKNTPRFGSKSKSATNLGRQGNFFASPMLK

[4] = molecular target: T5, Corticotropin-releasing factor receptor 2/Corticotropin-releasing factor-binding protein (Homo sapiens, UniProt P24387+Q13324); assay: activators of CRF receptor 2 with binding protein – uHTS hits, confirmation (AID 602473); format: functional; details: read-out: EC50_Mean
T5 sequence (Q13324 whole entry): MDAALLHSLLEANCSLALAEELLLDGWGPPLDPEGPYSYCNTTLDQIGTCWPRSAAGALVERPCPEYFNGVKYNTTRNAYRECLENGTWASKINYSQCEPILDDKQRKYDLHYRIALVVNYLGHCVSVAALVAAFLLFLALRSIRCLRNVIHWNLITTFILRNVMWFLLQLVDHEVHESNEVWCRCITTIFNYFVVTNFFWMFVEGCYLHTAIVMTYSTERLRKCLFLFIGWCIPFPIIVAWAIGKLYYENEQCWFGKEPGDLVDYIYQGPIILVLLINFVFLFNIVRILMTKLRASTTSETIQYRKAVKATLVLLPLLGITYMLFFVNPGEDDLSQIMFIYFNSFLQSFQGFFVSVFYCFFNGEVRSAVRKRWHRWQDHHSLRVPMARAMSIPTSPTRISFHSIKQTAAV
T5 sequence (P24387 whole entry): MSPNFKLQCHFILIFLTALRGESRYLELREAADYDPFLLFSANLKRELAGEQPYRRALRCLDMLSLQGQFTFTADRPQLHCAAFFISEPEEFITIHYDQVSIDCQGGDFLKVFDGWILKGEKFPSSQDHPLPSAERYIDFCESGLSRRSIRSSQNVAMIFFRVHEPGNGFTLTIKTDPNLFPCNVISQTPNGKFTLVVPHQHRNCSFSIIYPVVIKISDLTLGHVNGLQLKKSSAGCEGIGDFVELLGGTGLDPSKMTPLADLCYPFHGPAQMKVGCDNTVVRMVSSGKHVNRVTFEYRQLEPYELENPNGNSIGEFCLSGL

Cytochrome P450 2C19 = Cytochrome P450 2C19 (Homo sapiens, UniProt P33261); assay: Cytochrome panel assay with activity outcomes. Panel member name: p450-cyp2c19 Compounds with AC50 equal or less than 10 uM are considered active; format: functional; details: read-out: AC50
[5] = Luminescence Cell-Based Dose Retest to Confirm Inhibitors of Cancer Stem Cells. [Related pubchem assays (depositor defined):AID2717, AID2721]; format: functional; details: Homo sapiens

Sequence of Cytochrome P450 2C9 (P11712 whole entry): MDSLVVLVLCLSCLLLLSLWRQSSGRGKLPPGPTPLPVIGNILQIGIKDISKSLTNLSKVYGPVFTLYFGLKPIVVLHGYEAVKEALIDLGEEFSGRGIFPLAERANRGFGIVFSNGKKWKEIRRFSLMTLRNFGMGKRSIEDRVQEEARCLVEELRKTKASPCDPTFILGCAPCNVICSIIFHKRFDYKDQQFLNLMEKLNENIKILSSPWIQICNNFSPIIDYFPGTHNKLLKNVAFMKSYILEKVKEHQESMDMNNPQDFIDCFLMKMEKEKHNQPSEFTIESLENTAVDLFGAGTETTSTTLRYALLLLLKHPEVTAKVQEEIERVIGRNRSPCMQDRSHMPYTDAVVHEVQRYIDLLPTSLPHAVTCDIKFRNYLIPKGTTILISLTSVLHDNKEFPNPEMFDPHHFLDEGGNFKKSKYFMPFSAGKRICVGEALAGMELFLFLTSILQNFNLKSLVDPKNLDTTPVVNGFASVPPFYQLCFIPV
Sequence of Cytochrome P450 3A4 (P08684 whole entry): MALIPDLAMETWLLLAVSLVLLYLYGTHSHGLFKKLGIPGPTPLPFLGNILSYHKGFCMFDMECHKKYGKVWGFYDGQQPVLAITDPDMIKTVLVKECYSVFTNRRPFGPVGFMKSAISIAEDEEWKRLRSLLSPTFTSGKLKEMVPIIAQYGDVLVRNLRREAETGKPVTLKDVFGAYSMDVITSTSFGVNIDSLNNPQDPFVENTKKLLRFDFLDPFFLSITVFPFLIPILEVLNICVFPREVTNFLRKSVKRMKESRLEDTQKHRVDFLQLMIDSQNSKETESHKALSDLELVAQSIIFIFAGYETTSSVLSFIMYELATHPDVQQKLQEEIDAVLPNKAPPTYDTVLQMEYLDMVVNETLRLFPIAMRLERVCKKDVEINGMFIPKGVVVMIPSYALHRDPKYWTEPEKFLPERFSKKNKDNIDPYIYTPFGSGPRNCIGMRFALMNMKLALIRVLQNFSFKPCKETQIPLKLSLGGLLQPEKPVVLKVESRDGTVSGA
Sequence of Cytochrome P450 2C19 (P33261 whole entry): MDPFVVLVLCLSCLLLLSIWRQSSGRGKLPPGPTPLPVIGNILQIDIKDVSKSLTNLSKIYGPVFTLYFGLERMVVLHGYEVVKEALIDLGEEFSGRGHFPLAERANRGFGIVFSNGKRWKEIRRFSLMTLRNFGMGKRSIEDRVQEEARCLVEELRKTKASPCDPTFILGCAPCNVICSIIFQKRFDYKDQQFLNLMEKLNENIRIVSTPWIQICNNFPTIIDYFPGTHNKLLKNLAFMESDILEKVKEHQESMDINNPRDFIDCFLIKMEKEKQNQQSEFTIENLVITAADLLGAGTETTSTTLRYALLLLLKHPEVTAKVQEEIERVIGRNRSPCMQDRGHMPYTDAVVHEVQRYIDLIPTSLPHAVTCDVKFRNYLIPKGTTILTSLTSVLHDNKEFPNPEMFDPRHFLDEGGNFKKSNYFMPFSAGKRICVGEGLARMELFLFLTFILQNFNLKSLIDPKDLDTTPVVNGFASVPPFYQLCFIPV

| Structure (SMILES) | EC50 [1] | EC50 (Streptokinase A) | EC50 (Streptococcus) | other results |
| --- | --- | --- | --- | --- |
| c1ccc(-c2nc(C3CCCCC3)c3sccc3n2)cc1 | 4.26 µM (active) | 23.9 µM (active) | 15.5 µM (active) | – |
| COc1cccc(Cn2c(=O)c(-c3cccs3)nc3cnc(OCc4ccccc4)nc32)c1 | – | – | – | AC50 (Cytochrome P450 1A2): 1.58 µM (inconclusive); AC50 (Cytochrome P450 3A4): 7.94 µM (inconclusive); AC50 (Cytochrome P450 2C9): 0.631 µM (inconclusive) |
| CC(C)(C)n1nnnc1CN1CCC(NC(=O)NC2CCCCC2)CC1 | – | – | – | EC50 [2]: 33.9 µM (active) |
| Nc1cc(C(F)(F)F)ccc1N1CCOCC1 | – | – | – | IC50 [3]: 29.9 µM (active) |
| Cc1cc(C(C)(C)C)cc(C)c1COC(=O)c1cccnc1 | 15.8 µM (active) | > 150 µM (not active) | > 150 µM (not active) | – |
| CCn1c(-c2ccccc2)c[nH]c1=S | – | > 150 µM (not active) | – | – |
| N#Cc1c(NC(=S)NC(=O)C2CCCC2)sc2c1CCCCC2 | 8.59 µM (active) | 2.9 µM (active) | 27.1 µM (active) | – |
| Cn1c(=O)n(C)c2cc(/C=N/NC(=O)c3ccc(Cl)cc3Cl)ccc21 | – | – | – | AC50 (Cytochrome P450 1A2): 14.1 µM (inconclusive); AC50 (Cytochrome P450 3A4): 0.0398 µM (inconclusive); AC50 (Cytochrome P450 2C9): 39.8 µM (inconclusive) |
| Cc1ccsc1/C=C1\Oc2cc(O)ccc2C1=O | – | – | – | EC50 [4]: 11.1 µM (active) |
| c1ccc(OCc2nc3c4c(ncn3n2)-c2ccccc2CC42CCCC2)cc1 | 114 µM (active) | 22 µM (active) | > 150 µM (not active) | – |
| COc1ccc(-n2c(C)cc(-c3csc(NC(=O)c4ccc(S(=O)(=O)N(C)C)cc4)n3)c2C)cc1 | – | – | – | EC50 [2]: > 195 µM (not active) |
| Cc1nn(-c2ccccc2)c(Cl)c1C1C(C#N)=C(N)OC2=C1C(=O)CC(C)(C)C2 (stereo not drawn) | 1.4 µM (active) | > 150 µM (not active) | 16.1 µM (active) | – |
| O=[N+]([O-])c1ccc(-c2ccc(/C=N/Nc3nc(N4CCCC4)nc(N4CCCC4)n3)o2)cc1 | – | – | – | EC50 [4]: 2.8 µM (active) |
| CCC(C(=O)NCC1CCCO1)n1nc(C)c2sc3ccccc3c2c1=O (stereo not drawn) | > 150 µM (not active) | > 150 µM (not active) | > 150 µM (not active) | – |
| O=C(NCc1ccc(OC(F)(F)F)cc1)c1cccc2c1C(=O)c1ccc(N3CCC(Cc4ccccc4)CC3)cc1S2(=O)=O | – | – | – | EC50 [4]: 8.45 µM (active) |
| COc1cc(OC)c(OC)cc1/C=N/N(C)c1ccccc1 | – | – | – | IC50 [3]: 43.7 µM (active) |
| C/C(=N\NC(=O)C1CC1c1ccccc1)c1cccs1 (stereo not drawn) | – | – | – | AC50 (Cytochrome P450 2C19): 2.24 µM (inconclusive); AC50 (Cytochrome P450 1A2): 15.8 µM (inconclusive); AC50 (Cytochrome P450 3A4): 8.91 µM (inconclusive); AC50 (Cytochrome P450 2C9): 11.2 µM (inconclusive) |
| O=S(=O)(c1ccc2ccccc2c1)N1CCN(c2ccc(O)cc2)CC1 | – | – | – | AC50 [5]: 6.17 µM (active); IC50 [3]: 35.8 µM (active) |
| C/C=C(\C)C(=O)OC1CC(C)(C)C[C@H]2C3=CC[C@@H]4[C@@]5(C)CCC(O[C@@H]6O[C@@H](C(=O)O)[C@@H](O)C(O[C@@H]7OC[C@H](O)[C@@H](O)[C@@H]7O[C@@H]7OC(CO)C(O)[C@@H](O)[C@@H]7O)C6O[C@@H]6OC(CO)C(O)C(O)C6O)[C@@](C)(CO)[C@@H]5CC[C@]4(C)[C@]3(C)CC(O)[C@@]12CO (stereo partly drawn) | – | – | – | EC50 [4]: 11.4 µM (active) |
| Cc1ccc(-c2cc(-c3ccccc3Cl)[nH]n2)c(O)c1 | 6.71 µM (active) | 20.1 µM (inconclusive) | 13.6 µM (active) | – |
| CO[C@@]1(NC(=O)Cc2cccs2)C(=O)N2C(C(=O)O)=C(COC(N)=O)CS[C@@H]21 [CEFOXITIN SODIUM] | 5.58 µM (active) | > 150 µM (not active) | 16.2 µM (active) | – |
| COc1ccc(-c2c(C#N)c(N)nc3sc(C(=O)c4ccccc4)c(N)c23)cc1 | 5.29 µM (active) | > 150 µM (not active) | > 150 µM (not active) | – |
| COc1cc(C=C2NC(=O)NC2=O)ccc1O | – | – | – | IC50 [3]: 19 µM (active) |
| COc1ccc(CNC(=O)CN(C)Cc2ccc(C(C)(C)C)cc2)cc1 | – | – | – | IC50 [3]: 106 µM (active) |
| O=C(CNC(=O)C1COc2ccccc2O1)N/N=C/c1ccc(O)cc1O (stereo not drawn) | – | – | – | AC50 [5]: 6.23 µM (active); IC50 [3]: 71.7 µM (active) |
| COc1cc(C)ccc1NC(=O)Cc1csc(NC(=O)Nc2ccccc2OC)n1 | 15.4 µM (active) | 104 µM (active) | > 150 µM (not active) | – |
| O=C(CCN1CCCCCC1)Nc1ccc2c(c1)OCCO2 | – | – | – | IC50 [3]: 338 µM (active) |
| COc1cnc(-c2ccccn2)nc1Oc1ccccc1 | > 150 µM (not active) | > 150 µM (not active) | > 150 µM (not active) | – |
| O=C(CNCC1CCCO1)Nc1ccc(N2CCCCCC2)cc1 (stereo not drawn) | – | – | – | IC50 [3]: 62.7 µM (active) |
| CCCn1cc(CN2CCC(n3nccc3NC(=O)c3ccccc3)CC2)c(C)n1 | > 150 µM (not active) | > 150 µM (not active) | > 150 µM (not active) | – |
